Results taken from patent US20050014193A1, “Identification of target-specific folding sites in peptides and proteins” (priority 2003, published 2005).
Square brackets hold non-standard residues; d marks the D form. Peptide text beside a SMILES is read from it. Nle = CCCC[C@H](N)C(=O)O

Columns and labels:
hMC4-R = target: T1, hMC4-R (Homo sapiens, UniProt P32245); assay: Competitive inhibition of 125I-NDP-alpha-MSH binding, hMC4-R membranes
T1 construct: expressed in transfected cells; host or cells: 293 cells
Description: (§1) Ac-Nle-Ala-His-D-Phe-Arg-Trp-NH2 is a known receptor-binding sequence for melanotropin receptors. […] A series of metallopeptides based on this sequence were synthesized by inserting a Cys residue after the 2 position and through the n+1 position and complexing the resulting Cys-containing peptide with an Re-oxo metal ion core as described Example 1. The resulting metallopeptides were screened for inhibiting the binding of 125-I-NDP-alpha-MSH radioligand using B-16 mouse melanoma cells for MCR-1 and cloned human MCR-2, -3 and -4 receptor transfected 293 cells.
(§2) The competitive inhibition binding assay was conducted using membranes prepared from hMC3-R, hMC4-R, hMC5-R, and B-16 mouse melanoma cells (containing MC1-R) using 0.4 nM ^125I-NDP-alpha-MSH (New England Nuclear, Boston, Mass., USA) in 50 mM HEPES buffer containing 1 mM MgCl2, 2 mM CaCl2, and 5 mM KCl, at pH 7.2. The assay tube also contained a chosen concentration of the test peptide of this invention, complexed to a rhenium metal ion as indicated, for determining its efficacy in inhibiting the binding of ^125I-NDP-alpha-MSH to its receptor. […] The filter was dried and counted in a gamma counter for remaining radioactivity bound to the membranes. 100% specific binding was defined as the difference in radioactivity (cpm) bound to cell membranes in the absence and presence of 1 μM alpha-MSH. […]

MC1-R = target: T2, MC1-R (Mus musculus, UniProt Q01727); assay: Competitive inhibition of 125I-NDP-alpha-MSH binding, B-16 mouse melanoma cell membranes
T2 construct: B-16 mouse melanoma cells (containing MC1-R); endogenous in cells; host or cells: B-16 mouse melanoma cells (membranes)
Description: as §1, §2

uPA receptor = target: T3, uPA receptor (Homo sapiens, UniProt Q03405); assay: uPA receptor-binding assay using U937 cells and ATF as competitive ligand; conditions: within the Table 1 series
T3 construct: endogenous in cells; host or cells: U937 cells
T3 sequence (Q03405 23-305): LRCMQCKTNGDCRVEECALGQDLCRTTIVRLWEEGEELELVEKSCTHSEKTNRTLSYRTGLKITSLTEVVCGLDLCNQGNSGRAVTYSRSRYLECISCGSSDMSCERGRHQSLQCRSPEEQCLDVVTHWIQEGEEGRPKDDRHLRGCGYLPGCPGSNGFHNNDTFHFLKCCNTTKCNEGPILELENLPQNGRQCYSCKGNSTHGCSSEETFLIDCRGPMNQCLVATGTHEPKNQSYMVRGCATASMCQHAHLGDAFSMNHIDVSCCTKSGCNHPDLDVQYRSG

T2 sequence (Q01727 whole entry): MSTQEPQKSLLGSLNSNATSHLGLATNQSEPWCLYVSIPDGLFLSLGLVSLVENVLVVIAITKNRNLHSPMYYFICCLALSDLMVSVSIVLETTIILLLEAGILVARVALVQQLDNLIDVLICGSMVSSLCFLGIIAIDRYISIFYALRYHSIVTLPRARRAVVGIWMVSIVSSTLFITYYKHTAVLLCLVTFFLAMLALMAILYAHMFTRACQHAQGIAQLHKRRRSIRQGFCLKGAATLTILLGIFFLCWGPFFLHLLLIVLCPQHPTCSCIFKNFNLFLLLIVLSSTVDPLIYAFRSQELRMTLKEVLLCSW
T1 sequence (P32245 whole entry): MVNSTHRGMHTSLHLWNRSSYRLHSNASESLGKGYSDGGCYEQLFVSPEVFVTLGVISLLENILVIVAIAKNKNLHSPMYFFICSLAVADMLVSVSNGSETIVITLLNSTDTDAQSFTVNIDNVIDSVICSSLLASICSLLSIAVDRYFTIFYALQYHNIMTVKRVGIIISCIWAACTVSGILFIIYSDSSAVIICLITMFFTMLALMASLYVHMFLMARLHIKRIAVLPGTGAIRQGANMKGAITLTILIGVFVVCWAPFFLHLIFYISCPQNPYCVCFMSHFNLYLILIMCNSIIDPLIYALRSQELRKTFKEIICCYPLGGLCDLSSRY

Compound: CCCC[C@H](NC(C)=O)C(=O)N[C@@H](C)C(=O)N[C@@H](Cc1c[nH]cn1)C(=O)N[C@H](Cc1ccccc1)C(=O)N[C@@H](CCCNC(=N)N)C(=O)N[C@@H](Cc1c[nH]c2ccccc12)C(N)=O [Ac-Nle-Ala-His-D-Phe-Arg-Trp-NH2] (Ac-[Nle]AH[dF]RW-NH2)
- Ki (hMC4-R): 2000 nM
- Ki (MC1-R): 100 nM

Compound: Ac-Val-Ser-Asn-Lys-Tyr-Phe-Ser-Asn-Ile-His-Cys-Trp-NH2 (Ac-VSNKYFSNIHCW-NH2; not fully specified (bridges); printed as Ac-Val-Ser-Asn-Lys-Tyr-Phe-Ser-Asn-Ile-His-Cys-Trp-NH2; also: oxorhenium(V) N3S1 metal chelate (Re=O)) [SEQ ID NO: 3]
- relative potency in uPA receptor binding (uPA receptor): most potent of all these molecules
